Measured values reported in the NIST ThermoML archive (doi:10.1021/je050464i).
Where “and” joins values, the source holds several entries; their conditions need not be identical. Equal values may be shown once. Numbers after ± are expanded uncertainties.

Settings: Crystal, Calculated from knudsen effusion weight loss

[Pd] [palladium]
vapor or sublimation pressure (1473 K): 1e-05 kPa | vapor or sublimation pressure (1498 K): 2e-05 ± 2e-05 kPa | vapor or sublimation pressure (1523 K): 3e-05 ± 2e-05 kPa | vapor or sublimation pressure (1548 K): 6e-05 ± 4e-05 kPa | vapor or sublimation pressure (1573 K): 9e-05 ± 3e-05 kPa | vapor or sublimation pressure (1576 K): 9e-05 ± 0.00016 kPa | vapor or sublimation pressure (1598 K): 0.000141 ± 3e-05 kPa | vapor or sublimation pressure (1600 K): 0.00011 ± 3e-05 kPa | vapor or sublimation pressure (1626 K): 0.0002 ± 0.00014 kPa | vapor or sublimation pressure (1648 K): 0.00028 ± 9e-05 kPa | vapor or sublimation pressure (1650 K): 0.00026 ± 0.00019 kPa | vapor or sublimation pressure (1660 K): 0.0005 ± 0.0002 kPa | vapor or sublimation pressure (1673 K): 0.0004 ± 0.00019 kPa and 0.0004 ± 0.0002 kPa and 0.0004 ± 8e-05 kPa | vapor or sublimation pressure (1676 K): 0.00044 ± 0.00018 kPa | vapor or sublimation pressure (1685 K): 0.00067 ± 0.00019 kPa | vapor or sublimation pressure (1698 K): 0.0005 ± 0.0006 kPa and 0.00076 ± 0.00012 kPa and 0.00058 ± 5e-05 kPa | vapor or sublimation pressure (1700 K): 0.00061 ± 0.00014 kPa | vapor or sublimation pressure (1706 K): 0.0009 ± 0.0002 kPa | vapor or sublimation pressure (1723 K): 0.00108 ± 0.0002 kPa [middle of 4 runs] | vapor or sublimation pressure (1726 K): 0.00094 ± 0.00018 kPa | vapor or sublimation pressure (1740 K): 0.0012 ± 0.0003 kPa | vapor or sublimation pressure (1748 K): 0.0016 ± 0.0005 kPa and 0.0016 ± 0.0003 kPa and 0.0012 ± 0.00026 kPa | vapor or sublimation pressure (1750 K): 0.00131 ± 0.0003 kPa | vapor or sublimation pressure (1773 K): 0.002 ± 0.0005 kPa and 0.0022 ± 0.0005 kPa | vapor or sublimation pressure (1776 K): 0.002 ± 0.0003 kPa | vapor or sublimation pressure (1798 K): 0.0024 ± 0.0009 kPa and 0.0029 ± 0.0006 kPa | vapor or sublimation pressure (1800 K): 0.0027 ± 0.0005 kPa | vapor or sublimation pressure (1802 K): 0.0024 ± 0.0009 kPa | vapor or sublimation pressure (1806 K): 0.002 ± 0.002 kPa | vapor or sublimation pressure (1823 K): 0.004 ± 0.0011 kPa | vapor or sublimation pressure (1825 K): 0.0037 ± 0.0009 kPa | vapor or sublimation pressure (1840 K): 0.0047 ± 0.0011 kPa | vapor or sublimation pressure (1848 K): 0.0048 ± 0.0011 kPa | vapor or sublimation pressure (1850 K): 0.0053 ± 0.0011 kPa | vapor or sublimation pressure (1860 K): 0.0061 ± 0.0017 kPa | vapor or sublimation pressure (1873 K): 0.008 ± 0.008 kPa and 0.0076 ± 0.0017 kPa | vapor or sublimation pressure (1883 K): 0.0066 ± 0.0018 kPa | vapor or sublimation pressure (1885 K): 0.0082 ± 0.0017 kPa | vapor or sublimation pressure (1898 K): 0.01 ± 0.014 kPa and 0.0094 ± 0.002 kPa | vapor or sublimation pressure (1900 K): 0.0098 ± 0.0016 kPa | vapor or sublimation pressure (1910 K): 0.0109 ± 0.0023 kPa | vapor or sublimation pressure (1912 K): 0.0111 ± 0.002 kPa | vapor or sublimation pressure (1923 K): 0.013 ± 0.006 kPa and 0.014 ± 0.003 kPa | vapor or sublimation pressure (1925 K): 0.0125 ± 0.0021 kPa | vapor or sublimation pressure (1940 K): 0.015 ± 0.004 kPa | vapor or sublimation pressure (1942 K): 0.0157 ± 0.0035 kPa | vapor or sublimation pressure (1948 K): 0.018 ± 0.01 kPa and 0.017 ± 0.003 kPa and 0.021 ± 0.005 kPa | vapor or sublimation pressure (1950 K): 0.0174 ± 0.0031 kPa and 0.0166 ± 0.003 kPa | vapor or sublimation pressure (1954 K): 0.021 ± 0.005 kPa | vapor or sublimation pressure (1963 K): 0.02 ± 0.004 kPa and 0.0201 ± 0.0034 kPa | vapor or sublimation pressure (1965 K): 0.0203 ± 0.0028 kPa and 0.0204 ± 0.0028 kPa | vapor or sublimation pressure (1970 K): 0.024 ± 0.018 kPa | vapor or sublimation pressure (1972 K): 0.022 ± 0.005 kPa | vapor or sublimation pressure (1973 K): 0.022 ± 0.005 kPa and 0.024 ± 0.007 kPa and 0.02 ± 0.003 kPa
